Data: US20250114345A1, “COMPOUNDS AND COMPOSITIONS AS CBP/P300 DEGRADERS AND USES THEREOF” (Oncopia Therapeutics, Inc. d/b/a/ SK Life Science Labs, priority 2023, published 2025)

How the values were obtained:
[1] = target: T1, CBP (Homo sapiens, UniProt Q92793); assay: CBP degradation, HiBit technology in A549 CBP HiBit cells (24 h); assay type: cell-based; settings: 24 hrs post treatment
T1 construct: host or cells: A549 CBP HiBit cells
Outline: (§1)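 A549 HiBiT knock-in cells seeded overnight at 37 °C, 5% CO2 in F-12K with 10% heat-inactivated FBS, then given serial dilutions of compound from 10 mM DMSO stocks. Lytic HiBiT detection reagent added for 10 min at room temperature; luminescence read. Potency and Dmax reported.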

[2] = target: T2, p300 (Homo sapiens, UniProt Q09472); assay: P300 degradation, HiBit technology in A549 P300 HiBit cells (2 h); assay type: cell-based; settings: 2 hrs post treatment; for Dmax: A549, A549 P300 HiBit cells; for DC50: A549 P300 HiBit cells
T2 construct: host or cells: A549 P300 HiBit cells
Outline: as §1

T2 sequence (Q09472 whole entry): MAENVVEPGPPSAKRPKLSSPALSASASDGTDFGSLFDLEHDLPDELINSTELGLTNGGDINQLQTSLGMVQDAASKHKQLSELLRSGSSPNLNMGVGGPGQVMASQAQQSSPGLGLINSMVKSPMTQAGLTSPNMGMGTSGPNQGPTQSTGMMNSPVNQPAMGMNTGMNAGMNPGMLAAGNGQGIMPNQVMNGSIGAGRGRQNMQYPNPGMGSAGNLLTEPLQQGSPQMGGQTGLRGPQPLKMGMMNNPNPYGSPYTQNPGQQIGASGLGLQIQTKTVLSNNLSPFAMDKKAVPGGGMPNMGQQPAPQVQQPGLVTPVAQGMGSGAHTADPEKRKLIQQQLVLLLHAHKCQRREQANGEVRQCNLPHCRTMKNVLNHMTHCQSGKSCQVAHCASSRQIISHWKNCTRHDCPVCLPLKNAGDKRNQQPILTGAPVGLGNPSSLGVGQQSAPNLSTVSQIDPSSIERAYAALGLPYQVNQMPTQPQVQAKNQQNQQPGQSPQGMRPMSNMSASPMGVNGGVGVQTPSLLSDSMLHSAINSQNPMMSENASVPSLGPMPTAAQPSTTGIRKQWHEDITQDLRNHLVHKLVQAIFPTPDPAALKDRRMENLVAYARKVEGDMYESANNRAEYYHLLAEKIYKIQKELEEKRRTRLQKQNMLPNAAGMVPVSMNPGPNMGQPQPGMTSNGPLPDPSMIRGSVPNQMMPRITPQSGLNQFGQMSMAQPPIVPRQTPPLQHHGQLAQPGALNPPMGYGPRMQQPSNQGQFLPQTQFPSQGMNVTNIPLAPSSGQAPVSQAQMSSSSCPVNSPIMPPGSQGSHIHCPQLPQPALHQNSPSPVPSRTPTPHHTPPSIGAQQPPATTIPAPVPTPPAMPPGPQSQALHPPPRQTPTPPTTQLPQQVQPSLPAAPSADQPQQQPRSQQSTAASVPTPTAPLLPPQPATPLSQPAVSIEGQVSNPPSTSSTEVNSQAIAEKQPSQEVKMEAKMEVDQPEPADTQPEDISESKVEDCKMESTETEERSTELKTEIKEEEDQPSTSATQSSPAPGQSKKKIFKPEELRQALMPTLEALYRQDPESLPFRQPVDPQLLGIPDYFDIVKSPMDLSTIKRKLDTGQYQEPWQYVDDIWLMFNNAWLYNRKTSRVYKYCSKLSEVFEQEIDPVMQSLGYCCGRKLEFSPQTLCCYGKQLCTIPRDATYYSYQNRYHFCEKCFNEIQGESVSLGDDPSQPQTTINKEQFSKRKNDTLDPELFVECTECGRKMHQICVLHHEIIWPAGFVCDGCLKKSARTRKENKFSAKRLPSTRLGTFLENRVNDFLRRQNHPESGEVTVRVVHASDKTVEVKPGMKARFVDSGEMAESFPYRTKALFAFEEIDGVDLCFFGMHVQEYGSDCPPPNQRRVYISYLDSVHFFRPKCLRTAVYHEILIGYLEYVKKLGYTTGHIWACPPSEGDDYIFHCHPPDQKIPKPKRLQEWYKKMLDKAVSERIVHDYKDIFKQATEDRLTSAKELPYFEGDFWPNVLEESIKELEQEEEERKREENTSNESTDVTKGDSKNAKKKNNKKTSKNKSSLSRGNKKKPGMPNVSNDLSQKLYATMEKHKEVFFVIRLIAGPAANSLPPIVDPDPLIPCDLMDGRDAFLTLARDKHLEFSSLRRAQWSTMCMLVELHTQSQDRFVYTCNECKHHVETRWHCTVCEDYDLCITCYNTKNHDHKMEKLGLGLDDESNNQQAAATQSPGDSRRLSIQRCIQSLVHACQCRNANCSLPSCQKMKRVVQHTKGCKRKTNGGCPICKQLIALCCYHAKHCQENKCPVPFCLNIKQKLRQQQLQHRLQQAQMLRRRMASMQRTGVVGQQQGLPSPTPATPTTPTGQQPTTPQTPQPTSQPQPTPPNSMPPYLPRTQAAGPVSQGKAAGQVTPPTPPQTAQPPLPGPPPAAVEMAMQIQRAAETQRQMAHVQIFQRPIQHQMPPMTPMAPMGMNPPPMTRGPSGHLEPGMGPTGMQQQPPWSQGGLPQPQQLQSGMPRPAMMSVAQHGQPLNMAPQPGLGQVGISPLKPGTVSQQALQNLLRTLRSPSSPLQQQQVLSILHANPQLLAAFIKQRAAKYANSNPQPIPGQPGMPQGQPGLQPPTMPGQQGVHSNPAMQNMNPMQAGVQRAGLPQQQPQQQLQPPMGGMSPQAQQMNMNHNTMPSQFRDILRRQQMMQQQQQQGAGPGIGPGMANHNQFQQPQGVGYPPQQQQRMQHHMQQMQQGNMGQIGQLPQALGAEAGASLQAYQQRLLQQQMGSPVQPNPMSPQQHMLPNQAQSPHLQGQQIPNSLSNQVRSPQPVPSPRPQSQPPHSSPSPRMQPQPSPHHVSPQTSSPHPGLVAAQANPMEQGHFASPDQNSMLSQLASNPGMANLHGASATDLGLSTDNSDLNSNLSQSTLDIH
T1 sequence (Q92793 whole entry): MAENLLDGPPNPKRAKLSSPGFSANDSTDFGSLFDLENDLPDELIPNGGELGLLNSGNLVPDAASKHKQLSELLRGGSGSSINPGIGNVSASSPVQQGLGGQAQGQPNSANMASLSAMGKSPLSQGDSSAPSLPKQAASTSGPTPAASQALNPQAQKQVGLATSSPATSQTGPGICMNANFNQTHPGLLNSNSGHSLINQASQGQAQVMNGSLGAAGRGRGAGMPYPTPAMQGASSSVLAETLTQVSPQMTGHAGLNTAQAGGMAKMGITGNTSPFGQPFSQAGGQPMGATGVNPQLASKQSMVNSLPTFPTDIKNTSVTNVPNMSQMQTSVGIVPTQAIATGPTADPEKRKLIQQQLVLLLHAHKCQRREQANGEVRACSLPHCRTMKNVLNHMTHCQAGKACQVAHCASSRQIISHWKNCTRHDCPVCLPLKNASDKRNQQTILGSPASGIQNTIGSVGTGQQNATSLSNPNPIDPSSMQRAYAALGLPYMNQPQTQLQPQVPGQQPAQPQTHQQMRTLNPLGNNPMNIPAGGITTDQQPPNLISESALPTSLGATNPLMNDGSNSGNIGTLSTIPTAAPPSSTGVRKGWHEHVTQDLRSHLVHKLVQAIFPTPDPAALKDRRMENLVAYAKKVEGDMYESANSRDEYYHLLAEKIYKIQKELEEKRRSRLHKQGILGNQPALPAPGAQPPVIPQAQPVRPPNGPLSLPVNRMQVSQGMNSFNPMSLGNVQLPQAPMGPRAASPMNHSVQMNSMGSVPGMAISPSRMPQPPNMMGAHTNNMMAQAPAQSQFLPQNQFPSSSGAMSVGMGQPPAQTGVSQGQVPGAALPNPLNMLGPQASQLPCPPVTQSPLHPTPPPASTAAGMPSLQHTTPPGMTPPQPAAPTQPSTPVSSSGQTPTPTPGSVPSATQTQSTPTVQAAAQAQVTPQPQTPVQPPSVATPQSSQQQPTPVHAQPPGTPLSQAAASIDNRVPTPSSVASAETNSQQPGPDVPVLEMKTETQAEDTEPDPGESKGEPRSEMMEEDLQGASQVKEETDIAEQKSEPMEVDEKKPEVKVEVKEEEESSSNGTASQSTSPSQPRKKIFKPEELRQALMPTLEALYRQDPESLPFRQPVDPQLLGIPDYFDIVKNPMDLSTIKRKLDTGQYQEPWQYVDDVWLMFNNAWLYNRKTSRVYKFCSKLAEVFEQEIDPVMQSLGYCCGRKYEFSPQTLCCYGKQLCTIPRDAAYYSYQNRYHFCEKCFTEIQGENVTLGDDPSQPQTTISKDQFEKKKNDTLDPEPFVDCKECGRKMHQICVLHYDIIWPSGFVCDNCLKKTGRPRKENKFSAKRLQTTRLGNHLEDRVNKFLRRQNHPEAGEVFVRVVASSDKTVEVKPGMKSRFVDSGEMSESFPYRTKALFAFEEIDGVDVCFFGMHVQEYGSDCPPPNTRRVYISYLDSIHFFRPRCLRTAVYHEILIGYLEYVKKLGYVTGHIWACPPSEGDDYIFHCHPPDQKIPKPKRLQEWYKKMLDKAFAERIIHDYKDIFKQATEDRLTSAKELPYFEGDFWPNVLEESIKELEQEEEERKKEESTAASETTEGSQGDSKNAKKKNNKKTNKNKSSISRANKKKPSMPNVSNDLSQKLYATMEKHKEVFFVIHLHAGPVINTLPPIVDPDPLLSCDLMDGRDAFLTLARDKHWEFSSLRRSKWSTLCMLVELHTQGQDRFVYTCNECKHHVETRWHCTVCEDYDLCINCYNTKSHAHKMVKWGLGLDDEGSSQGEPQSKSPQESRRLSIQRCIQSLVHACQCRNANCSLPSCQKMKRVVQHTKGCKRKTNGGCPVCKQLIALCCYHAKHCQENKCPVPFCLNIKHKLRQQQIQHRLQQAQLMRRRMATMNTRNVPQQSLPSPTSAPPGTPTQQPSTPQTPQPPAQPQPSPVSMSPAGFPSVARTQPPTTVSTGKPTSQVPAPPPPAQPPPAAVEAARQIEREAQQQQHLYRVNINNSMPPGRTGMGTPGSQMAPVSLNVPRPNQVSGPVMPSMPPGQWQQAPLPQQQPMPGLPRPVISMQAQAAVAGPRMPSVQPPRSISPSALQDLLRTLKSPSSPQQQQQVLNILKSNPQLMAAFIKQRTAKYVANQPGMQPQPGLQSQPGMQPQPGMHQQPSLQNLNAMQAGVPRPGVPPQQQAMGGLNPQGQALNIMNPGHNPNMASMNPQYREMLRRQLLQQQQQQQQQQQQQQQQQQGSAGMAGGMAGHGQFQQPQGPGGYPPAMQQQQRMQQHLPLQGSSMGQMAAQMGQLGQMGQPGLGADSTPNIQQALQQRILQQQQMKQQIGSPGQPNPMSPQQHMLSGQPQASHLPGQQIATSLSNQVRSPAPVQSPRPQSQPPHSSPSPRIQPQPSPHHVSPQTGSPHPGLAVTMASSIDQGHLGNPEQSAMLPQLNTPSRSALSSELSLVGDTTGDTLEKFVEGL

Row | SMILES | DC50 [1] | Dmax [1] | Dmax [2] | DC50 [2]
1 | Cc1cc(-c2cc3cccc(-c4cc5c(c(N6CCOCC6)n4)n(C)c(=O)n5C)c3cn2)cnc1C(=O)NCC#Cc1ccc2occ(C3CCC(=O)NC3=O)c2c1 (stereo not shown) [Example A150, 5-(8-(1,3-dimethyl-4-morpholino-2-oxo-2,3-dihydro-1H-imidazo[4,5-c]pyridin-6-yl)isoquinolin-3-yl)-N-(3-(3-(2,6-dioxopiperidin-3-yl)benzofuran-5-yl)prop-2-yn-1-yl)-3-methylpicolinamide] | > 1000 nM | < 20% | > 80% | 1 to 9.9 nM
2 | Cc1cc(-c2cc3cccc(-c4ccc5c(c4)n(C)c(=O)n5C)c3cn2)cnc1C(=O)NCC#Cc1ccc2occ(C3CCC(=O)NC3=O)c2c1 (stereo not shown) [Example A155, 5-(8-(1,3-dimethyl-2-oxo-2,3-dihydro-1H-benzo[d]imidazol-5-yl)isoquinolin-3-yl)-N-(3-(3-(2,6-dioxo-piperidin-3-yl)benzofuran-5-yl)prop-2-yn-1-yl)-3-methylpicolinamide] | > 1000 nM | < 20% | > 80% | 1 to 9.9 nM
3 | Cc1cc(N2CCOc3nc(-c4ccc(C(=O)NCC#Cc5cc6c(C7CCC(=O)NC7=O)nccc6o5)nc4)ncc32)cc2c1n(C)c(=O)n2C (stereo not shown) [Example A160, N-(3-(4-(2,6-dioxo-piperidin-3-yl)furo[3,2-c]pyridin-2-yl)prop-2-yn-1-yl)-5-(5-(1,3,7-trimethyl-2-oxo-2,3-dihydro-1H-benzo[d]imidazol-5-yl)-6,7-dihydro-5H-pyrimido[4,5-b] [1,4]oxazin-2-yl)picolinamide] | > 1000 nM | < 20% | > 80% | < 1 nM

The next lines start with the values.

Row | DC50 [1] | Dmax [1] | Dmax [2] | DC50 [2] | SMILES
4 | > 1000 nM | < 20% | > 80% | < 1 nM | Cn1c(=O)n(C)c2c(N3CC(C)(O)C3)nc(-c3cccc4cc(-c5ccc(C(=O)NCC#Cc6ccc7occ(C8CCC(=O)NC8=O)c7c6)nc5)ncc34)cc21 (stereo not shown) [Example A145, N-(3-(3-(2,6-dioxo-piperidin-3-yl)benzofuran-5-yl)prop-2-yn-1-yl)-5-(8-(4-(3-hydroxy-3-methylazetidin-1-yl)-1,3-dimethyl-2-oxo-2,3-dihydro-1H-imidazo[4,5-c]pyridin-6-yl)isoquinolin-3-yl)picolinamide]
5 | 10 to 99 nM | 40 to 59% | > 80% | 1 to 9.9 nM | CC(C)c1cc(-c2cccc3cc(-c4ccc(C(=O)NCC#Cc5ccc6oc(F)c(C7CCC(=O)NC7=O)c6c5)nc4)ncc23)cc2c1n(C)c(=O)n2C (stereo not shown) [Example A158, N-(3-(3-(2,6-dioxo-piperidin-3-yl)-2-fluorobenzofuran-5-yl)prop-2-yn-1-yl)-5-(8-(7-isopropyl-1,3-dimethyl-2-oxo-2,3-dihydro-1H-benzo [d]imidazol-5-yl)isoquinolin-3-yl)picolinamide]
6 | 100 to 999 nM | < 20% | > 80% | < 1 nM | CC(C)c1cc(N2CCOc3cc(-c4ccc(C(=O)NCC#Cc5ccn6ncc(C7CCC(=O)NC7=O)c6c5)nc4)ncc32)cc2c1n(C)c(=O)n2C (stereo not shown) [Example A161, N-(3-(3-(2,6-dioxo-piperidin-3-yl)pyrazolo[1,5-a]pyridin-5-yl)prop-2-yn-1-yl)-5-(4-(7-isopropyl-1,3-dimethyl-2-oxo-2,3-dihydro-1H-benzo[d]imidazol-5-yl)-3,4-dihydro-2H-pyrido[4,3-b][1,4]oxazin-7-yl)picolinamide]
7 | 100 to 999 nM | < 20% | > 80% | < 1 nM | Cn1c(=O)n(C)c2ncc(-c3cccc4cc(-c5ccc(C(=O)NCC#Cc6cc7c(C8CCC(=O)NC8=O)cccc7o6)nc5)ncc34)cc21 (stereo not shown) [Example A162, 5-(8-(1,3-dimethyl-2-oxo-2,3-dihydro-1H-imidazo[4,5-b]pyridin-6-yl)isoquinolin-3-yl)-N-(3-(4-(2,6-dioxopiperidin-3-yl)benzofuran-2-yl)prop-2-yn-1-yl)picolinamide]
